Results from ChEMBL document CHEMBL5223090, “Annual review of lysine-specific demethylase 1 (LSD1/KDM1A) inhibitors in 2021” (Eur J Med Chem, 2022).

Assays:
Histone deacetylase 2 = Histone deacetylase 2 (Homo sapiens, UniProt Q92769); experiment: Inhibition of HDAC2 (unknown origin)
HepG2 = experiment: Antiproliferative activity against human HepG2 cells assessed as cell growth inhibition; type: functional, cell-based
PC-3 = experiment: Antiproliferative activity against human PC-3 cells assessed as cell growth inhibition; type: functional, cell-based
HCT-116 = experiment: Antiproliferative activity against human HCT-116 cells assessed as cell growth inhibition; type: functional, cell-based
SK-OV-3 = experiment: Antiproliferative activity against human SK-OV-3 cells assessed as cell growth inhibition; type: functional, cell-based
Bel-7402 = experiment: cells; details: Homo sapiens
A549 [1] = experiment: cells; details: Homo sapiens
MCF7 = experiment: cells; details: Homo sapiens
A549 [2] = system: A549
THP-1 = experiment: cells; details: Homo sapiens
[3] = molecular target: T1, Lysine-specific histone demethylase 1A (Homo sapiens, UniProt O60341)
SGC-7901 = experiment: Antiproliferative activity against human SGC-7901 cells assessed as cell growth inhibition; type: functional, cell-based
[4] = molecular target: T1, Lysine-specific histone demethylase 1A; experiment: Inhibition of LSD1 (unknown origin) at 0.4 uM relative to control
MAO-B = molecular target: T2, MAO-B (Homo sapiens, UniProt P27338); experiment: Inhibition of MAO-B (unknown origin) at 0.4 uM relative to control
T2 sequence (P27338 whole entry): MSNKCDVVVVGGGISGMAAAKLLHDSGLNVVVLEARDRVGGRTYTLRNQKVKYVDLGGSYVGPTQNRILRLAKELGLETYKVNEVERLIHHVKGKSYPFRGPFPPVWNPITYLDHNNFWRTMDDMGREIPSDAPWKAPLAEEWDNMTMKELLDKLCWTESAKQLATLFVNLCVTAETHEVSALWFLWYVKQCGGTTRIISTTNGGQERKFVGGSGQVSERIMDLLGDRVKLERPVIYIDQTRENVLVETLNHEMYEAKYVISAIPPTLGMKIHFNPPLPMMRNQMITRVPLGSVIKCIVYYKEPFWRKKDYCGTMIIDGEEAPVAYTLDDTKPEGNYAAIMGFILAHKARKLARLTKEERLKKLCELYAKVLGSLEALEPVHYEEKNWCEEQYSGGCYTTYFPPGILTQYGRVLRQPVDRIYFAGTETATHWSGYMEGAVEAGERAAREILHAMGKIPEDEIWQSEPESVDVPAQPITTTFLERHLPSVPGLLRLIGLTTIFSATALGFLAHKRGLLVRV

MAO-A = molecular target: T3, MAO-A (Homo sapiens, UniProt P21397); experiment: Inhibition of MAO-A (unknown origin) at 0.4 uM relative to control
T3 sequence (P21397 whole entry): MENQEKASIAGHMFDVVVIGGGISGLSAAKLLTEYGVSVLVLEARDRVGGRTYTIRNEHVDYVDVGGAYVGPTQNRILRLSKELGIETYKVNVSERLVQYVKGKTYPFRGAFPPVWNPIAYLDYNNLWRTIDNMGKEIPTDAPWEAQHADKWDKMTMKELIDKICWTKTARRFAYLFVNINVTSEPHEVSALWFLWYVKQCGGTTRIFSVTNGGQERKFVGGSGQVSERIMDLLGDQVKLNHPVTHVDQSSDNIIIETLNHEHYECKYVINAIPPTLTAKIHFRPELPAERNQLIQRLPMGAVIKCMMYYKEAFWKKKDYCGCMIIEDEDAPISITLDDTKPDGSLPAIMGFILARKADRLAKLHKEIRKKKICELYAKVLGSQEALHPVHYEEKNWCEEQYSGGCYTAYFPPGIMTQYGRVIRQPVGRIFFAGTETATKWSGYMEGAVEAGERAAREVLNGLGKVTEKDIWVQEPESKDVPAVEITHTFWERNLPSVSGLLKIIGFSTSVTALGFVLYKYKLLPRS

[5] = Antiproliferative activity against human SGC7901/ADR cells assessed as cell growth inhibition; type: functional, cell-based; details: SGC-7901
NCI-H460 = experiment: cells; details: Homo sapiens
in vitro = details: human, THLE-2 cells
MGC-803 = experiment: cells; details: Homo sapiens
MDA-MB-231 = experiment: Antiproliferative activity against human MDA-MB-231 cells assessed as cell growth inhibition; type: functional, cell-based

Histone deacetylase 2, sequence (Q92769 whole entry): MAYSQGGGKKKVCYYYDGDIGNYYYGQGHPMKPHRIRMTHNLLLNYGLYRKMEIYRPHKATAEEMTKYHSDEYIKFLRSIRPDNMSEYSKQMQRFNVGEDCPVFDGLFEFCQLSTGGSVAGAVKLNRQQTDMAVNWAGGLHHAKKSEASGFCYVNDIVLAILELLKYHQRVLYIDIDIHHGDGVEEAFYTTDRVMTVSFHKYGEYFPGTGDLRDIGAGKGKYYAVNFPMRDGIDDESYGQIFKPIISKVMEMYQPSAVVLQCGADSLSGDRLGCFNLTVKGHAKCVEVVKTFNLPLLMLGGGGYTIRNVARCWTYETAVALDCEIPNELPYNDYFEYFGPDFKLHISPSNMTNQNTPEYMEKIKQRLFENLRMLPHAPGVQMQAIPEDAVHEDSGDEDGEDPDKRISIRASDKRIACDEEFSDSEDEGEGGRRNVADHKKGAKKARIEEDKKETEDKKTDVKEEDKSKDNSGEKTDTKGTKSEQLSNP

`N/C(=N\O)c1cccc(/C=C/c2ccnc(-c3cc(F)ccc3O)c2)c1` showed an IC50 (Histone deacetylase 2) greater than 100 µM.

`O=S1(=O)CCCCN(S(=O)(=O)c2ccc(-c3cnc(C4CC4)o3)cc2)c2ccccc21` showed an IC50 (HepG2) of 2.17 µM, an IC50 (PC-3) of 5.88 µM and an IC50 (HCT-116) of 0.263 µM. The IC50 (SK-OV-3) was 1.62 µM.

Work on `COc1ccc(S(=O)(=O)N(CCSC(=S)N2CCN(C)CC2)c2cc(OC)c(OC)c(OC)c2)cc1` yielded an IC50 (Bel-7402) of 0.32 µM.

`O=C(CC(=O)c1ccc(C(F)(F)F)cc1)Nc1cccc2c1CCCN2Cc1ccc(OC2CCNCC2)cc1` showed an IC50 (A549 [1]) of 8.49 µM and an IC50 (MCF7) of 0.35 µM.

With `COc1cc(Br)c(/C=C/c2ccc(C(=O)NO)cc2)cc1OC` the IC5 (A549 [2]) was 6.23 µM and the IC50 (THP-1) was 3.39 µM.

`Cn1c(C(=O)Nc2cccc3c2N(Cc2ccc(OC4CCNCC4)cc2)CCC3)cc2cc(F)ccc21` gave an IC50 [3] of 0.54 µM.

`Oc1ccc(CC2NCCc3cc(O)c(O)cc32)cc1` (configuration not stated) [HIGENAMINE] gave an IC50 [3] of 1.47 µM.

In the case of `O=C(c1ccc(OCCN2CCCCC2)cc1)c1c(-c2ccc(O)cc2)sc2cc(O)ccc12` [RALOXIFENE], the IC50 [3] is reported as 2.08 µM.

Work on `Cn1c(C(=O)Nc2cccc3c2CCCN3Cc2ccc(OC3CCNCC3)cc2)cc2sccc21` yielded an IC50 (A549 [1]) of 5.3 µM and an IC50 (MCF7) of 6.91 µM.

For `COc1cc2c(c(O)c1OC)c(=O)c1ccccc1n2C` [ARBORININE], the IC50 (SGC-7901) was 1.96 µM, the inhibition [4] was 99.3% and the inhibition at 0.4 µM (MAO-B) was 31%. For the same molecule, the inhibition at 0.4 µM (MAO-A) was 23.7% and the IC50 [5] was 0.24 µM.

For `Cn1c(C(=O)CC(=O)Nc2cccc3c2CCCN3Cc2ccc(OC3CCNCC3)cc2)cc2ccccc21`, the IC50 (A549 [1]) was 7.61 µM and the IC50 (MCF7) was 7.02 µM.

Molecule `Cc1ccc(-c2cc(/C=C/c3ccc(C(=O)NO)cc3)ccn2)c(F)c1` has an IC50 (Histone deacetylase 2) greater than 10 µM.

With `COc1cc(F)c(/C=C/c2ccc(C(=O)NO)cc2)cc1OC` the IC50 (THP-1) was 2.15 µM, the IC50 (A549 [1]) was 1.58 µM and the IC50 (MCF7) was 4960 µM.

Work on `Cn1c(C(=O)Nc2cccc3c2CCCN3Cc2ccc(OC3CCNCC3)cc2[N+](=O)[O-])cc2sccc21` yielded an IC50 (A549 [1]) of 2.13 µM and an IC50 (MCF7) of 2.35 µM.

With `CNCCCNCc1coc2cc(-c3ccc(C)cc3)c(-c3ccc(C#N)cc3)cc12` the IC50 (NCI-H460) was 1.87 µM, the IC50 (in vitro) was 4.2 µM and the IC50 (THP-1) was 4.87 µM. The IC50 (A549 [1]) was 4.08 µM, the IC50 (MCF7) was 3.36 µM and the IC50 (MGC-803) was 6.47 µM.

Work on `Oc1ccc(C2CNCCc3c2cc(O)c(O)c3Cl)cc1` (configuration not stated) [FENOLDOPAM] yielded an IC50 [3] of 0.89 µM.

With `Nc1ccc(C(=O)/C=C/c2ccccc2F)cc1` the IC50 (MCF7) was 13.2 µM and the IC50 (MDA-MB-231) was 34.7 µM.
